Where two headings read alike, the source gives them in different places.
Legend:
Assay type in all cases: in vivo
[1] = system: Pyricularia oryzae (rice blast); assay: whole plant or invertebrate; conditions: disease control rating, foliar spray on rice, 400 ppm (+++ at 100 ppm)
[2] = system: Erysiphe graminis tritici (powdery mildew); assay: Test 1 greenhouse foliar spray screen, powdery mildew on wheat; conditions: disease control rating, foliar spray on wheat, 400 ppm (+++ at 100 ppm)
[3] = system: Twospotted spider mites (Tetranychus urticae Koch); assay: Mite/insect screen, SM; conditions: Tetranychus urticae, percent mortality, read-out: SM RESULTS %
Summary of the method: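 Foliar spray to runoff (10 psi), 1 h drying; aqueous dilutions from acetone/alcohol emulsifier stock. Mortality (%) after standard exposure.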

[4] = system: Cercospora beticola (leaf spot); assay: Test 1 greenhouse foliar spray screen, leaf spot on sugar beet; conditions: disease control rating, foliar spray on sugar beet, 400 ppm (+++ at 100 ppm)
[5] = system: Venturia inaequalis (apple scab); assay: Test 1 greenhouse foliar spray screen, apple scab on apple seedling; conditions: disease control rating, foliar spray on apple seedling, 400 ppm (+++ at 100 ppm)
[6] = system: Botrytis cinerea (gray mold); assay: Test 1 greenhouse foliar spray screen, gray mold on grape berries; conditions: disease control rating, spray on grape berries, 400 ppm (+++ at 100 ppm)
[7] = system: Pseudoperonospora cubensis (downy mildew); assay: Test 1 greenhouse foliar spray screen, downy mildew on squash; conditions: for DOWN MDEW: disease control rating, foliar spray on squash, 400 ppm (+++ at 100 ppm)
[8] = system: southern armyworm (Spodopetra eridania Cramer); assay: Mite/insect screen, SAW; conditions: Spodoptera eridania, percent mortality, read-out: SAW RESULTS %
Summary of the method: (§1)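 Read-out: percent mortality after standard exposure periods. Test solutions were water dilutions of compound dissolved in acetone/alcohol (50:50) with emulsifier blends; leaves were sprayed to runoff on both surfaces and air-dried for one hour before exposure.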

[9] = system: Puccinia recondita tritici (leaf rust); assay: Test 1 greenhouse foliar spray screen, leaf rust on wheat; conditions: disease control rating, foliar spray on wheat, 400 ppm (+++ at 100 ppm)
[10] = system: melon aphids (Aphis gossypii Glover); assay: Mite/insect screen, MA; conditions: Aphis gossypii, percent mortality, read-out: MA RESULTS %
Summary of the method: as §1

[11] = system: Septoria tritici (leaf blotch); assay: Test 1 greenhouse foliar spray screen, leaf blotch on wheat; conditions: disease control rating, foliar spray on wheat, 400 ppm (+++ at 100 ppm)
corn rootworm = assay: Mite/insect screen, CRW; conditions: percent mortality, read-out: CRW RESULTS %
Summary of the method: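 Read-out: % mortality after standard exposure. Formulation: acetone/alcohol (50:50) with emulsifiers at 23 g and 13 g per liter, water-diluted to final test levels.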

[12] = foliar, rate 200 ppm, foliar spray on squash
[13] = foliar, rate 400 ppm, foliar spray on squash

Row | Structure (SMILES) | RICE BLAST [1] | POWD MDEW [2] | mortality at 200 ppm ([3]; SAW, SM & MA RATE 200 PPM) [%] | LEAF SPOT [4] | APPL SCAB [5] | GRAY MOLD [6] | DOWN MDEW [7] | mortality at 200 ppm ([8]; SAW, SM & MA RATE 200 PPM) [%] | LEAF RUST [9] | mortality at 200 ppm ([10]; SAW, SM & MA RATE 200 PPM) [%] | LEAF BLOT [11] | mortality at 12 ppm (corn rootworm; CRW RATE 12.00 PPM) [%] | mortality at 200 ppm [3, 12] [%] | mortality at 200 ppm [8, 12] [%] | mortality at 200 ppm [10, 12] [%] | mortality at 12 ppm (corn rootworm; CRW rate 12.00 ppm) [%] | mortality at 400 ppm [3, 13] [%] | mortality at 400 ppm [8, 13] [%] | mortality at 400 ppm [10, 13] [%] | mortality at 24 ppm (corn rootworm; CRW rate 24.00 ppm) [%] | further results
1 | Fc1cccc2c(NCCc3ccc(Cl)s3)ccnc12 [Example 163, N-[2-(5-chloro-2-thienyl)ethyl]-8-fluoro-4-quinolinamine] | + (20-89% control at 400 ppm) | ++ (90-100% control at 400 ppm) | 0 | +++ (90-100% control at 100 ppm) | - (0-19% control at 400 ppm) | - (0-19% control at 400 ppm) | ++ (90-100% control at 400 ppm) | 0 | +++ (90-100% control at 100 ppm) | 0 | - (0-19% control at 400 ppm) | 0 | – | – | – | – | – | – | – | – | –
2 | Fc1cccc2c(NCCc3c[nH]cn3)ccnc12 [Example 164, 8-fluoro-N-[2-(1H-imidazol-4-yl)ethyl]-4-quinolinamine] | + (20-89% control at 400 ppm) | - (0-19% control at 400 ppm) | 0 | + (20-89% control at 400 ppm) | - (0-19% control at 400 ppm) | + (20-89% control at 400 ppm) | ++ (90-100% control at 400 ppm) | 0 | + (20-89% control at 400 ppm) | 0 | - (0-19% control at 400 ppm) | 0 | – | – | – | – | – | – | – | – | –
3 | Clc1ccc2c(NCCC3=CCCCC3)ccnc2c1 [Example 165, 7-chloro-N-[2-(1-cyclohexenyl)ethyl]-4-quinolinamine] | ++ (90-100% control at 400 ppm) | + (20-89% control at 400 ppm) | – | +++ (90-100% control at 100 ppm) | + (20-89% control at 400 ppm) | - (0-19% control at 400 ppm) | +++ (90-100% control at 100 ppm) | – | ++ (90-100% control at 400 ppm) | – | - (0-19% control at 400 ppm) | – | 0 | 0 | 0 | 0 | – | – | – | – | mortality at 400 ppm ([3]; SAW, SM & MA RATE 400 PPM): 0%; activity against downy mildew ([7]; summary statement in the description): particularly excellent activity; mortality at 400 ppm ([8]; SAW, SM & MA RATE 400 PPM): 0%; mortality at 400 ppm ([10]; SAW, SM & MA RATE 400 PPM): 0%; mortality at 24 ppm (corn rootworm; CRW RATE 24.00 PPM): 0%
4 | Clc1ccc2c(NCCc3ccc4ccccc4c3)ccnc2c1 [Example 166, 7-chloro-N-[2-(2-naphthyl)ethyl]-4-quinolinamine] | + (20-89% control at 400 ppm) | + (20-89% control at 400 ppm) | – | - (0-19% control at 400 ppm) | - (0-19% control at 400 ppm) | - (0-19% control at 400 ppm) | +++ (90-100% control at 100 ppm) | – | + (20-89% control at 400 ppm) | – | + (20-89% control at 400 ppm) | – | 0 | 0 | 0 | 0 | 0 | 0 | 0 | 0 | –
5 | Fc1ccc2nccc(NCCC3=CCCCC3)c2c1 [Example 168, N-[2-(1-cyclohexenyl)ethyl]-6-fluoro-4-quinolinamine] | ++ (90-100% control at 400 ppm) | + (20-89% control at 400 ppm) | – | - (0-19% control at 400 ppm) | - (0-19% control at 400 ppm) | - (0-19% control at 400 ppm) | +++ (90-100% control at 100 ppm) | – | ++ (90-100% control at 400 ppm) | – | - (0-19% control at 400 ppm) | – | 0 | 0 | 0 | 0 | 0 | 0 | 0 | 0 | –
